Measurements from ChEMBL document CHEMBL1148212, “New sphingosines from a gorgonian, Pseudopterogorgia australiensis Ridley, of the Indian Ocean” (J Nat Prod, 2004).
Active and inactive are the calls of the source. The calls are words filed in the database; no cut-off is given here.

What was measured:
Format in all cases: functional, organism-based
Pseudomonas aeruginosa = assay: Antimicrobial activity against Pseudomonas aeruginosa at 1 mg/mL by cup diffusion method
Candida albicans = assay: Antimicrobial activity against Candida albicans
Proteus vulgaris = assay: Antimicrobial activity against Proteus vulgaris at 1 mg/mL by cup diffusion method
Staphylococcus aureus = assay: Antimicrobial activity against Staphylococcus aureus at 1 mg/mL by cup diffusion method
Aspergillus niger = assay: Antimicrobial activity against Aspergillus niger
Bacillus pumilus = assay: Antimicrobial activity against Bacillus pumilus at 1 mg/mL by cup diffusion method
Bacillus subtilis = assay: Antimicrobial activity against Bacillus subtilis at 1 mg/mL by cup diffusion method
Escherichia coli = assay: Antimicrobial activity against Escherichia coli at 1 mg/mL by cup diffusion method

Structure (SMILES) | Activity (Pseudomonas aeruginosa) | Activity (Candida albicans) | Activity (Proteus vulgaris) | Activity (Staphylococcus aureus) | Activity (Aspergillus niger) | Activity (Bacillus pumilus) | Activity (Bacillus subtilis) | Activity (Escherichia coli)
CCCCCCCCCCCCCCCCC[C@@H](O)C(=O)N[C@@H](CO)[C@H](O)[C@H](O)CCCCCCCCCCCCCCC | Active | inactive | Active | Active | inactive | Active | Active | Active
CCCCCCCCCCCCCCCCCCCCCC(=O)N[C@@H](CO)[C@H](O)CCCCCCCCCCCCCCCC | Active | inactive | Active | Active | inactive | Active | Active | Active
CCCCCCCCCCCCC/C=C/[C@@H](O)[C@H](CO)NC(=O)CCCCCCCCCCCCCCCC | Active | inactive | Active | Active | inactive | Active | Active | Active
